Experimental data as given in ChEMBL document CHEMBL3044742, “Pharmacophagous feeding stimulant activity of neo-clerodane diterpenoids for the turnip sawfly, Athalia rosae ruficornis” (2004).

How the values were obtained:
Assay type in all cases: functional
Athalia rosae ruficornis [1] = experiment: Pharmacophagous feeding stimulant activity in Athalia rosae ruficornis assessed as insect fed on paper for more than 10 seconds at 10^-8 g/filter paper
Athalia rosae ruficornis [2] = experiment: Pharmacophagous feeding stimulant activity in Athalia rosae ruficornis assessed as insect fed on paper for more than 10 seconds at 10^-6 g/filter paper
Athalia rosae ruficornis [3] = experiment: Pharmacophagous feeding stimulant activity in Athalia rosae ruficornis assessed as insect fed on paper for more than 10 seconds at 10^-7 g/filter paper
Athalia rosae ruficornis [4] = experiment: Pharmacophagous feeding stimulant activity in Athalia rosae ruficornis assessed as insect fed on paper for more than 10 seconds at 10^-5 g/filter paper

CC(=O)OC[C@@]12[C@@H](OC(C)=O)C[C@@H](C)[C@](C)([C@@H]3C[C@H]4C=CO[C@H]4O3)[C@H]1CC[C@H](OC(C)=O)[C@]21CO1 [3-EPICARYOPTIN]
Activity (Athalia rosae ruficornis [1]): 80% | Activity (Athalia rosae ruficornis [2]): 80% | Activity (Athalia rosae ruficornis [3]): 80% | Activity (Athalia rosae ruficornis [4]): 80%

CC(=O)OC[C@@]12[C@@H](OC(C)=O)C[C@@H](C)[C@](C)([C@@H]3C[C@H]4C=CO[C@H]4O3)[C@H]1C[C@@H](O)[C@H](OC(=O)C(C)C)[C@]21CO1 [AJUGACHIN A]
Activity (Athalia rosae ruficornis [1]): 80% | Activity (Athalia rosae ruficornis [2]): 80% | Activity (Athalia rosae ruficornis [3]): 80% | Activity (Athalia rosae ruficornis [4]): 80%

C/C=C(\C)C(=O)O[C@@H]1CC[C@]2(CO2)[C@]2(COC(C)=O)[C@@H](OC(C)=O)C[C@@H](C)[C@](C)(C[C@H](O)C3=CC(=O)OC3)[C@@H]12 [AJUGAMARIN A1]
Activity (Athalia rosae ruficornis [1]): <10% | Activity (Athalia rosae ruficornis [2]): <10% | Activity (Athalia rosae ruficornis [3]): <10% | Activity (Athalia rosae ruficornis [4]): <10%

C/C=C(\C)C(=O)O[C@@H]1CC[C@]2(CO2)[C@]2(COC(C)=O)[C@@H](OC(C)=O)C[C@@H](C)[C@](C)(C[C@H](OC(=O)[C@@H](C)CC)C3=CC(=O)OC3)[C@@H]12 [AJUGAMARIN G1]
Activity (Athalia rosae ruficornis [1]): <10% | Activity (Athalia rosae ruficornis [2]): <10% | Activity (Athalia rosae ruficornis [3]): <10% | Activity (Athalia rosae ruficornis [4]): <10%

C/C=C(\C)C(=O)O[C@@H](C[C@@]1(C)[C@H](C)C[C@H](OC(C)=O)[C@]2(COC(C)=O)[C@@H]1[C@H](OC(=O)[C@@H](C)CC)CC[C@]21CO1)C1=CC(=O)OC1 [AJUGAMARIN H1]
Activity (Athalia rosae ruficornis [1]): <10% | Activity (Athalia rosae ruficornis [2]): <10% | Activity (Athalia rosae ruficornis [3]): <10% | Activity (Athalia rosae ruficornis [4]): <10%

CC[C@H](C)C(=O)O[C@H]1CC(=O)[C@@H]2[C@@](C)(CCC3=CC(=O)OC3)[C@H](C)C[C@H](OC(C)=O)[C@@]2(COC(C)=O)[C@@]12CO2 [AJUGAREPTANSONE A]
Activity (Athalia rosae ruficornis [1]): <10% | Activity (Athalia rosae ruficornis [2]): <10% | Activity (Athalia rosae ruficornis [3]): <10% | Activity (Athalia rosae ruficornis [4]): 10%

C/C=C(\C)C(=O)O[C@@H](C[C@@]1(C)[C@H](C)C[C@H](OC(C)=O)[C@]2(COC(C)=O)[C@@H]1[C@H](OC(=O)/C(C)=C/C)CC[C@]21CO1)C1=CC(=O)OC1 [AJUGATAKASIN A]
Activity (Athalia rosae ruficornis [1]): <10% | Activity (Athalia rosae ruficornis [2]): <10% | Activity (Athalia rosae ruficornis [3]): <10% | Activity (Athalia rosae ruficornis [4]): <10%

CC[C@H](C)C(=O)O[C@@H](C[C@@]1(C)[C@H](C)C[C@H](OC(C)=O)[C@]2(COC(C)=O)[C@@H]1[C@H](OC(=O)[C@@H](C)CC)CC[C@]21CO1)C1=CC(=O)OC1 [AJUGATAKASIN B]
Activity (Athalia rosae ruficornis [1]): <10% | Activity (Athalia rosae ruficornis [2]): <10% | Activity (Athalia rosae ruficornis [3]): <10% | Activity (Athalia rosae ruficornis [4]): <10%

CC[C@H](C)C(=O)O[C@@H](C[C@@]1(C)[C@H](C)C[C@H](OC(C)=O)[C@]2(COC(C)=O)[C@@H]1CC[C@H](O)[C@]21CO1)C1=CC(=O)OC1 [AJUGATANSIN B1]
Activity (Athalia rosae ruficornis [1]): <10% | Activity (Athalia rosae ruficornis [2]): <10% | Activity (Athalia rosae ruficornis [3]): <10% | Activity (Athalia rosae ruficornis [4]): <10%

CC(=O)OC[C@@]12[C@@H](OC(C)=O)C[C@@H](C)[C@](C)([C@@H]3C[C@H]4C=CO[C@H]4O3)[C@H]1C[C@@H](O)[C@H](O)[C@]21CO1 [ATHALIADIOL]
Activity (Athalia rosae ruficornis [1]): 40% | Activity (Athalia rosae ruficornis [2]): 80% | Activity (Athalia rosae ruficornis [3]): 40% | Activity (Athalia rosae ruficornis [4]): 80%

CC[C@H](C)C(=O)O[C@@H](C[C@@]1(C)[C@H](C)C[C@H](OC(C)=O)[C@]2(COC(C)=O)[C@@H]1C(=O)C[C@H](O)[C@]21CO1)C1=CC(=O)OC1 [Ajugareptone]
Activity (Athalia rosae ruficornis [1]): <10% | Activity (Athalia rosae ruficornis [2]): <10% | Activity (Athalia rosae ruficornis [3]): <10% | Activity (Athalia rosae ruficornis [4]): <10%

CC[C@@](C)(OC(C)=O)C(=O)O[C@H]1[C@H](O)C[C@@H]2[C@@](C)([C@@H]3C[C@H]4C=CO[C@H]4O3)C(C)=C[C@H](OC(C)=O)[C@@]2(COC(C)=O)[C@@]12CO2 [CLERODENDRIN A]
Activity (Athalia rosae ruficornis [1]): <10% | Activity (Athalia rosae ruficornis [2]): 40% | Activity (Athalia rosae ruficornis [3]): <10% | Activity (Athalia rosae ruficornis [4]): 40%

CC[C@@](C)(OC(C)=O)C(=O)O[C@H]1[C@H](O)C[C@@H]2[C@@](C)([C@@H]3C[C@H]4C=CO[C@H]4O3)[C@H](C)C[C@H](OC(C)=O)[C@@]2(COC(C)=O)[C@@]12CO2 [CLERODENDRIN B]
Activity (Athalia rosae ruficornis [1]): 40% | Activity (Athalia rosae ruficornis [2]): 80% | Activity (Athalia rosae ruficornis [3]): 80% | Activity (Athalia rosae ruficornis [4]): 80%

CC[C@H](C)C(=O)O[C@H]1[C@H](O)C[C@@H]2[C@@](C)([C@@H]3C[C@H]4C=CO[C@H]4O3)[C@H](C)C[C@H](OC(C)=O)[C@@]2(COC(C)=O)[C@@]12CO2 [CLERODENDRIN D]
Activity (Athalia rosae ruficornis [1]): 80% | Activity (Athalia rosae ruficornis [2]): 80% | Activity (Athalia rosae ruficornis [3]): 80% | Activity (Athalia rosae ruficornis [4]): 80%

CC(=O)OC[C@@]12[C@@H](OC(C)=O)C=C(C)[C@](C)([C@@H]3C[C@H]4C=CO[C@H]4O3)[C@H]1C[C@@H](O)[C@H](OC(=O)C(C)(C)OC(C)=O)[C@]21CO1 [CLERODENDRIN E]
Activity (Athalia rosae ruficornis [1]): <10% | Activity (Athalia rosae ruficornis [2]): 10% | Activity (Athalia rosae ruficornis [3]): <10% | Activity (Athalia rosae ruficornis [4]): 10%

CC(=O)OC[C@@]12[C@@H](OC(C)=O)C=C(C)[C@](C)([C@@H]3C[C@H]4C=CO[C@H]4O3)[C@H]1C[C@@H](O)[C@H](OC(=O)[C@](C)(OC(C)=O)[C@@H](C)OC(C)=O)[C@]21CO1 [CLERODENDRIN F]
Activity (Athalia rosae ruficornis [1]): <10% | Activity (Athalia rosae ruficornis [2]): 10% | Activity (Athalia rosae ruficornis [3]): <10% | Activity (Athalia rosae ruficornis [4]): 10%

CCC(C)C(=O)O[C@H]1[C@H](O)C[C@@H]2[C@@](C)([C@@H]3C[C@H]4C=CO[C@H]4O3)C(C)=C[C@H](OC(C)=O)[C@@]2(COC(C)=O)[C@@]12CO2 (some centres undefined) [CLERODENDRIN G]
Activity (Athalia rosae ruficornis [1]): <10% | Activity (Athalia rosae ruficornis [2]): 40% | Activity (Athalia rosae ruficornis [3]): <10% | Activity (Athalia rosae ruficornis [4]): 40%

CC(=O)OC[C@@]12[C@@H](OC(C)=O)C[C@@H](C)[C@](C)([C@@H]3C[C@H]4C=CO[C@H]4O3)[C@H]1C[C@@H](O)[C@H](OC(=O)[C@](C)(OC(C)=O)[C@@H](C)OC(C)=O)[C@]21CO1 [CLERODENDRIN H]
Activity (Athalia rosae ruficornis [1]): 80% | Activity (Athalia rosae ruficornis [2]): 80% | Activity (Athalia rosae ruficornis [3]): 80% | Activity (Athalia rosae ruficornis [4]): 80%

CC(=O)OC[C@@]12[C@@H](OC(C)=O)C=C(C)[C@](C)([C@@H]3C[C@H]4C=CO[C@H]4O3)[C@H]1C[C@@H](O)[C@H](OC(=O)[C@](C)(OC(C)=O)[C@H](C)OC(C)=O)[C@]21CO1 [CLERODENDRIN I]
Activity (Athalia rosae ruficornis [1]): <10% | Activity (Athalia rosae ruficornis [2]): 10% | Activity (Athalia rosae ruficornis [3]): <10% | Activity (Athalia rosae ruficornis [4]): 10%

CC(=O)OC[C@@]12[C@@H](OC(C)=O)C[C@@H](C)[C@](C)([C@@H]3C[C@H]4C=CO[C@H]4O3)[C@H]1CCC[C@]21CO1 [CLERODIN]
Activity (Athalia rosae ruficornis [1]): 40% | Activity (Athalia rosae ruficornis [2]): 80% | Activity (Athalia rosae ruficornis [3]): 80% | Activity (Athalia rosae ruficornis [4]): 80%

CCC(C)C(=O)O[C@@H]1CC[C@]2(CO2)[C@]2(COC(C)=O)[C@@H](OC(C)=O)C[C@@H](C)[C@](C)(C[C@H](O)C3=CC(=O)OC3)[C@@H]12 (some centres undefined) [DIHYDROAJUGAMARIN]
Activity (Athalia rosae ruficornis [1]): <10% | Activity (Athalia rosae ruficornis [2]): <10% | Activity (Athalia rosae ruficornis [3]): <10% | Activity (Athalia rosae ruficornis [4]): <10%
